Patent US20220235073A1, “ARTEMISININ-DERIVATIVE N-HETEROCYCLIC CARBENE GOLD(I) HYBRID COMPLEXES” (CENTRE NATIONAL DE LA RECHERCHE SCIENTIFIQUE, priority 2019, published 2022)

How the values were obtained:
[1] = tested on: PC-3 human prostate cancer cells; experiment: Cell viability MTT assay, PC-3; format: cell-based; conditions: for GI50: 72 h, MTT assay
[2] = tested on: NIH3T3 murine fibroblast cells; experiment: Cell viability MTT assay, NIH3T3; format: cell-based; conditions: for GI50: 72 h, MTT assay; for Selectivity index NIH3T3: SI = GI50 (non-cancer cell line NIH3T3)/GI50 (cancer cell line PC-3)
Method: (§1) HepG-2 human liver cancer cells were cultured in EMEM containing 10% of FBS, 1% of nonessential amino acids, 1 mM of Na-pyruvate, 1% of PenStrep antibiotics and 600 μg/mL of Geneticin. A549 human lung carcinoma cells, T24 human bladder carcinoma cells, MCF-7 human breast adenocarcinoma cells, U-2OS human osteosarcoma and NIH3T3 murine fibroblast cells were cultured in DMEM medium containing 10% fetal bovine serum and 1% antibiotics at 37° C. in 5% CO2 humidified incubators. MC3T3 mouse osteoblast cells were cultured in MEM medium containing 10% fetal bovine serum and 1% antibiotics at 37° C. in 5% CO2 humidified incubators. RWPE-1 human prostate normal cells were cultured in K-SFM medium containing 0.05 mg/ml bovine pituitary extract (BPE) and 5 ng/ml epidermal growth factor (EGF) at 37° C. in 5% CO2 humidified incubators. The MTT reagent (3-(4,5-dimethylthiazol-2-yl)-2,5-diphenyltetrazolium bromide) was used to determine cell death as originally described by Mosmaneland modified by Cuvillier et al.^[6] Briefly, cells were seeded 5,000 to 10,000 cells/well in 24-well plates depending on the cell type and allowed to attach overnight. All of the complexes were dissolved in DMSO. The concentration of the complexes was calculated according to the elemental composition of the complexes determined by the elemental analyses. Media in the presence of the tested complexes were added and serially diluted to various concentrations (from 5 μM to 0.01 μM). Next to these concentrations, for DHA 50, 20 and 10 μM and for the cationic bisNHC gold(I) complex 3 0.001 μM have been used. […] After 72 h of treatment, cells were incubated at 37° C. and 5% CO2 with 25 μL MTT solution (5 mg/mL; Sigma-Aldrich) in 24-well plates for approximately 3 to 4 h. After solubilization with 500 μL of lysis buffer (DMSO), formazan was quantified by spectrophotometry with a microplate reader at 570 nm absorbance. […] All the results were calculated from data obtained in three independent experiments.

[3] = tested on: RWPE-1 human prostate normal cells; experiment: Cell viability MTT assay, RWPE-1; format: cell-based; conditions: for GI50: 72 h, MTT assay; for Selectivity index RWPE-1: SI = GI50 (RWPE-1)/GI50 (PC-3)
Method: as §1

[4] = tested on: Nrf2; experiment: NRF2 transcriptional activity, ARE Reporter Hep G2 cell line; format: cell-based, human; conditions: ARE Reporter Hep G2 cells, 16 hours, any dose
Method: The ARE Reporter Hep G2 cell line containing a firefly luciferase gene under the control of ARE stably integrated into Hep G2 cells was used to quantify NRF2 transcriptional activity after 16 hours of treatment with the indicated doses of the different complexes. The results are shown as fold induction of ARE luciferase reporter expression. Dashed line indicates a fold induction of 1 (values >1 mean activation and values <1 mean inhibition).
ARE-reporter-HepG-2 cells were harvested from culture in Growth Medium 1K and they were seeded at a concentration of 40,000 cells/well into white clear-bottom 96-well microplate in 45 μL of Growth Medium 1K without Geneticin. Cells were allowed to attach overnight and then treated with different concentrations of complex 2a (from 0.01 μM to 20 μM), auranofin (from 0.01 μM to 20 μM) or DHA (from 0.01 μM to 3, 5, 10, 20 and 50 μM), and complex (from 0.01 μM to 20 μM). After incubation at 37° C. and 5% CO2 for 16 hours, ONE-Step luciferase assay reagent (100 μL) was added and rock at room temperature for over 15 minutes. Then the luminescence of each well was determined by CLARIOstar microplate reader to quantify induction of ARE. Three independent experiments were performed as biological triplicates. The results are in FIG. 4.

[5] = tested on: MC3T3 mouse osteoblast cells; experiment: Cell viability MTT assay, MC3T3; format: cell-based
Method: (§2) PC-3 human prostate cancer cells, and LAMA chronic myeloid leukemia were cultured in RPMI 1640 containing 10% fetal bovine serum and 1% antibiotics (100 U/mL penicillin and 100 μg/mL streotimycin) at 37° C. in 5% CO2 humidified incubators. HL60 […] were cultured in RPMI 1640 containing 15% fetal bovine serum and 1% antibiotics (100 U/mL penicillin and 100 μg/mL streotimycin) at 37° C. in 5% CO2 humidified incubators. HepG-2 human liver cancer cells were cultured in EMEM containing 10% of FBS, 1% of nonessential amino acids, 1 mM of Na-pyruvate, 1% of PenStrep antibiotics and 600 μg/mL of Geneticin. A549 human lung carcinoma cells, T24 human bladder carcinoma cells, MCF-7 human breast adenocarcinoma cells, U-2OS human osteosarcoma and NIH3T3 murine fibroblast cells were cultured in DMEM medium containing 10% fetal bovine serum and 1% antibiotics at 37° C. in 5% CO2 humidified incubators. MC3T3 mouse osteoblast cells were cultured in MEM medium containing 10% fetal bovine serum and 1% antibiotics at 37° C. in 5% CO2 humidified incubators. RWPE-1 human prostate normal cells were cultured in K-SFM medium containing 0.05 mg/ml bovine pituitary extract (BPE) and 5 ng/ml epidermal growth factor (EGF) at 37° C. in 5% CO2 humidified incubators. The MTT reagent (3-(4,5-dimethylthiazol-2-yl)-2,5-diphenyltetrazolium bromide) was used to determine cell death as originally described by Mosmaneland modified by Cuvillier et al.^[6] Briefly, cells were seeded 5,000 to 10,000 cells/well in 24-well plates depending on the cell type and allowed to attach overnight. All of the complexes were dissolved in DMSO. The concentration of the complexes was calculated according to the elemental composition of the complexes determined by the elemental analyses. Media in the presence of the tested complexes were added and serially diluted to various concentrations (from 5 μM to 0.01 μM). Next to these concentrations, for DHA 50, 20 and 10 μM and for the cationic bisNHC gold(I) complex 3 0.001 μM have been used. […] After 72 h of treatment, cells were incubated at 37° C. and 5% CO2 with 25 μL MTT solution (5 mg/mL; Sigma-Aldrich) in 24-well plates for approximately 3 to 4 h. After solubilization with 500 μL of lysis buffer (DMSO), formazan was quantified by spectrophotometry with a microplate reader at 570 nm absorbance. The GI50 values corresponding to the concentration that caused 50% inhibition of cell proliferation were calculated from dose-response curves obtained by nonlinear regression analysis (Prism 8, Graphpad Software). All the results were calculated from data obtained in three independent experiments.

[6] = tested on: A549 human lung carcinoma cells; experiment: Cell viability MTT assay, A549; format: cell-based
Method: as §2

[7] = tested on: MCF-7 human breast adenocarcinoma cells; experiment: Cell viability MTT assay, MCF-7; format: cell-based
Method: as §2

[8] = tested on: T24 human bladder carcinoma cells; experiment: Cell viability MTT assay, T24; format: cell-based
Method: as §2

[9] = tested on: U-2OS human osteosarcoma; experiment: Cell viability MTT assay, U-2OS; format: cell-based
Method: as §2

[10] = tested on: HepG-2 human liver cancer cells; experiment: Cell viability MTT assay, HepG-2; format: cell-based; conditions: 72 h
Method: (§3) PC-3 human prostate cancer cells, and LAMA chronic myeloid leukemia were cultured in RPMI 1640 containing 10% fetal bovine serum and 1% antibiotics (100 U/mL penicillin and 100 μg/mL streotimycin) at 37° C. in 5% CO2 humidified incubators. HL60 […] were cultured in RPMI 1640 containing 15% fetal bovine serum and 1% antibiotics (100 U/mL penicillin and 100 μg/mL streotimycin) at 37° C. in 5% CO2 humidified incubators. HepG-2 human liver cancer cells were cultured in EMEM containing 10% of FBS, 1% of nonessential amino acids, 1 mM of Na-pyruvate, 1% of PenStrep antibiotics and 600 μg/mL of Geneticin. A549 human lung carcinoma cells, T24 human bladder carcinoma cells, MCF-7 human breast adenocarcinoma cells, U-2OS human osteosarcoma and NIH3T3 murine fibroblast cells were cultured in DMEM medium containing 10% fetal bovine serum and 1% antibiotics at 37° C. in 5% CO2 humidified incubators. MC3T3 mouse osteoblast cells were cultured in MEM medium containing 10% fetal bovine serum and 1% antibiotics at 37° C. in 5% CO2 humidified incubators. RWPE-1 human prostate normal cells were cultured in K-SFM medium containing 0.05 mg/ml bovine pituitary extract (BPE) and 5 ng/ml epidermal growth factor (EGF) at 37° C. in 5% CO2 humidified incubators. The MTT reagent (3-(4,5-dimethylthiazol-2-yl)-2,5-diphenyltetrazolium bromide) was used to determine cell death as originally described by Mosmaneland modified by Cuvillier et al.^[6] Briefly, cells were seeded 5,000 to 10,000 cells/well in 24-well plates depending on the cell type and allowed to attach overnight. All of the complexes were dissolved in DMSO. The concentration of the complexes was calculated according to the elemental composition of the complexes determined by the elemental analyses. […] After solubilization with 500 μL of lysis buffer (DMSO), formazan was quantified by spectrophotometry with a microplate reader at 570 nm absorbance. […] All the results were calculated from data obtained in three independent experiments.

[11] = tested on: LAMA chronic myeloid leukemia; experiment: Cell viability MTT assay, LAMA; format: cell-based, human
Method: as §2

[12] = tested on: HL60 (acute myeloid leukemia); experiment: Cell viability MTT assay, HL60; format: cell-based
Method: as §2

[13] = tested on: Non tumoral cell models (MC3-T3, NIH3T3, RWPE1); experiment: MTT assay, mean over non tumoral cell models; format: cell-based; conditions: mean of MC3-T3, NIH3T3, RWPE1
Method: as §3

[14] = tested on: Tumor cell models; experiment: MTT assay, panel of tumor cell models; format: cell-based, human; conditions: mean of PC-3, A549, U2OS, T24, MCF-7, LAMA, HL60
Method: as §3

[15] = tested on: NF-κB transcription factor induced by TNFalpha; experiment: NF-kB transcriptional activity, NF-kB Reporter (Luc)-A549 stable cell line; format: cell-based, human; conditions: NF-kB Reporter A549 cells, 1 ng/ml TNFα, 7 hours; read-out: IC50, inhibition of NF-κB transcription factor induced by TNFalpha
Method: The NF-kB Reporter (Luc)—A549 Stable Cell Line was used to quantify the inhibitory effects of the indicated doses of the molecules of the invention on transcriptional activity of NF-kB activated by 1 ng/ml TNFα (7 hours of treatment).
Luminescence was read using a luminometer and readings were normalized to wells that only contain media to obtain the Relative Luminescence Units (RLUs).
9. NF-kB Transcriptional Activity

[16] = ratio of IC50, tumoral versus non tumoral cells of same tissue

3′-methyl-1′-[10β-(20-propoxy)dihydroartemisin]1H-imidazol-3-ium bromide [Compound 1a]
GI50 [1]: > 20000 nM
GI50 [2]: > 20000 nM
GI50 [3]: > 20000 nM

C[C@@H]1CC[C@H]2[C@@H](C)C(=O)O[C@@H]3O[C@@]4(C)CC[C@@H]1[C@]32OO4 [artemisinin]
Effect on activity of Nrf2 [4]: activate

3′-methyl-1′-[10β-(21-butoxy)dihydroartemisin]1H-imidazol-3-ium bromide [Compound 1b]
GI50 [1]: > 20000 nM
GI50 [2]: > 20000 nM
GI50 [3]: > 20000 nM

3′-methyl-1′-[10β-(22-pentoxy)dihydroartemisin]1H-imidazol-3-ium bromide [Compound 1c]
GI50 [1]: > 20000 nM
GI50 [2]: > 20000 nM
GI50 [3]: 3740 nM

CN1C=CN(c2ccc3ccccc3n2)[CH]1[Au-][CH]1N(C)C=CN1c1ccc2ccccc2n1 (centres unmarked) [Compound 3]
Effect on activity of Nrf2 [4]: activate

C[C@@H]1CCC2[C@@H](C)[C@@H](OCCCn3cc[n+](C)[c]3[Au-][c]3n(CCCO[C@H]4O[C@@H]5O[C@]6(C)CCC7[C@H](C)CCC([C@H]4C)[C@]75OO6)cc[n+]3C)O[C@@H]3O[C@]4(C)CCC1[C@@]23OO4.O=[N+]([O-])[O-] (some centres unmarked) [Compound 2a]
GI50 [1]: 70 nM
IC50 ([1]; Table 3, tumor cell model): 70 nM
GI50 [2]: 1130 nM
Selectivity index NIH3T3 [2]: 16.1
IC50 ([2]; Table 3, non tumoral cell model, read-out: IC50 NIH3T3 (fibroblasts)): 1130 nM
GI50 ([5]; 72 h, MTT assay): 1620 nM
Selectivity index MC3T3 ([5]; SI = GI50 (MC3T3)/GI50 (PC-3)): 23.1
IC50 ([5]; Table 3, non tumoral cell model, read-out: IC50 MC3-T3 (osteoblasts)): 1620 nM
Specificity Bone: MC3-T3 (normal immortalized)/U2OS (tumoral) [5, 16]: 13.3
GI50 [3]: 480 nM
Selectivity index RWPE-1 [3]: 6.9
IC50 ([3]; Table 3, non tumoral cell model, read-out: IC50 RWPE1 (prostatic epithelial cells)): 480 nM
Specificity Prostate: RWPE1 (normal immortalized)/PC-3 (tumoral) [3, 16]: 6.9
SI PC-3/RPWE-1 value, times higher than Auranofin ([3]; ratio of SI): 69 times
SI PC-3/RPWE-1 value, times higher than complex 3 ([3]; ratio of SI): 35 times
GI50 ([6]; 72 h, MTT assay): 110 nM
IC50 ([6]; Table 3, tumor cell model): 115 nM
GI50 ([7]; 72 h, MTT assay): 90 nM
IC50 ([7]; Table 3, tumor cell model): 89 nM
GI50 ([8]; 72 h, MTT assay): 170 nM
IC50 ([8]; Table 3, tumor cell model): 175 nM
GI50 ([9]; 72 h, MTT assay, read-out: GI50 U2OS): 120 nM
IC50 ([9]; Table 3, tumor cell model, read-out: IC50 U2OS (bone tumor)): 122 nM
GI50 [10]: 2430 nM
GI50 ([11]; 72 h, MTT assay): 80 nM
IC50 ([11]; Table 3, tumor cell model): 79 nM
GI50 ([12]; 72 h, MTT assay): 22 nM
IC50 ([12]; Table 3, tumor cell model): 22 nM
IC50 [13]: 1080 nM
IC50 [14]: 96 nM
IC50 [15]: ~615 nM

C[C@@H]1CCC2[C@@H](C)[C@@H](OCCCCn3cc[n+](C)[c]3[Au-][c]3n(CCCCO[C@H]4O[C@@H]5O[C@]6(C)CCC7[C@H](C)CCC([C@H]4C)[C@]75OO6)cc[n+]3C)O[C@@H]3O[C@]4(C)CCC1[C@@]23OO4.[Cl-] (some centres unmarked) [Compound 2b]
GI50 [1]: 42 nM
GI50 [2]: 700 nM
Selectivity index NIH3T3 [2]: 16.7
GI50 [3]: 110 nM
Selectivity index RWPE-1 [3]: 2.6
